This is an account of results in patent US11622974B2, “Prebiotic composition and its use” (CP KELCO U.S., INC., priority 2019, dated 2023).

One series concerns Bifidobacterium. Nature of the series: i-screen in vitro fermentation of fecal microbiota pool: Bifidobacterium growth. It is filed as cell-based. The note with it: second i-screen, relative to untreated control (1.0). The protocol:
(§1) Samples containing 8 mg/mL (0.8% w/v) of SPS or SOS were diluted by a factor of two to provide samples containing 4 mg/mL (0.4% w/v) of SPS or SOS. The effect of Sample Nos. 1-12 at a concentration of 4 mg/mL on a panel of over twenty-five gut microbiota was assessed after 24 h of fermentation using an in vitro fermentation screening platform (“i-screen”), as described by Fehlbaum (2018). Specifically, a standard fecal microbiota pool derived from 5-6 healthy adults (health based on exclusion criteria) was used that was pre-cultured overnight from a frozen stock. […] A number of sphingan samples and comparative samples—plant extracts (e.g., pectins, pectin oligosaccharides, and carrageenans) and biogums (e.g., xanthan and xanthan oligosaccharides)) were analyzed at a concentration of about 4 mg/mL, which corresponds to a dose of about 4 g/day. […]
(§2) Shifts in microbiota composition were determined by next generation sequencing, which recognizes bacteria at the genus level and in many cases (but not all) at the species level. To have a uniform distribution of samples in the sequencing pool total bacterial load was established by a quantitative Polymerase Chain Reaction (“PCR”) using a universal primer-probe set. […] Next, amplicons were gel-purified, quantified and pooled. […]
(§3) The standard controls were carried out in triplicate. […] The effect was determined relative to an untreated control. […]

A further series concerns Blautia. Briefly: i-screen in vitro fermentation of fecal microbiota pool: Blautia growth. It is filed as cell-based. The note with it: second i-screen, pool H1, relative to untreated control (1.0). The procedure:
as §1, §2, §3

The next series relates to Faecalibacterium. Briefly: i-screen in vitro fermentation of fecal microbiota pool: Faecalibacterium growth. It is filed as cell-based. The following applies: second i-screen, pool H1, relative to untreated control (1.0). The protocol: as §1, §2, §3
The next series relates to Parabacteroides. Nature of the series: i-screen in vitro fermentation of fecal microbiota pool: Parabacteroides growth. The following applies: second i-screen, pool H1, relative to untreated control (1.0). It is filed as cell-based. The protocol: as §1, §2, §3
Series [1] deals with Lachnospiraceae unclassified. Nature of the series: i-screen in vitro fermentation: Lachnospiraceae unclassified growth. It is filed as cell-based. The note with it: second i-screen, relative to untreated control (1.0). The procedure:
as §1, §2, §3

In another series the test system is Clostridium XlVa. Briefly: i-screen in vitro fermentation: Clostridium XlVa growth. It counts as cell-based. The following applies: second i-screen, relative to untreated control (1.0).
Another series has as its system Coprococcus. Nature of the series: i-screen in vitro fermentation: Coprococcus growth. The following applies: second i-screen, relative to untreated control (1.0). It counts as cell-based. The procedure: as §1, §2, §3
The subject of another series is Phascolarctobacterium. Briefly: i-screen in vitro fermentation: Phascolarctobacterium growth. It counts as cell-based. The following applies: second i-screen, relative to untreated control (1.0). The protocol: as §1, §2, §3
The subject of a further series is Butyricicoccus. Briefly: i-screen in vitro fermentation: Butyricicoccus growth. The note with it: second i-screen, relative to untreated control (1.0). It is filed as cell-based. The procedure:
as §1, §2, §3

For the next series, the system named is NF-κB. Nature of the series: Caco-2/THP1-Blue co-culture: NF-κB activity after LPS. It is filed as cell-based, human. The note with it: control tests, versus LPS+. The text has this: (§4) Samples collected from the SHIME experiment described above were used to evaluate in vitro the effect of the fermented products on intestinal epithelial barrier function and immune markers. These include samples from the proximal and distal colon reactors of three different donors, collected at the end of the control and treatment periods.
THP1-Blue™ (InvivoGen) cells were maintained in Roswell Park Memorial Institute (RPMI) 1640 medium containing glucose and glutamine, supplemented with HEPES, sodium pyruvate and 10% (v/v) H1-FBS. THP1-Blue™ are THP1 human monocytes stably transfected with a reporter construct expressing a secreted alkaline phosphatase (SEAP) gene under the control of a promoter inducible by the transcription factor nuclear factor kappa B (NF-κB). Upon TLR activation (e.g., by lipopolysaccharide (LPS); isolated from Gram-negative bacteria), NF-κB becomes activated and induces the expression and secretion of SEAP. SEAP activity can then be measured in the supernatants by using the QUANTI-Blue reagent (InvivoGen). […]
Briefly, the apical compartment (containing the Caco-2 cells) was filled with sterile-filtered (0.22 μm) colonic SHIME suspensions or with different concentrations of live bacteria. […] Cells were treated for 24 h, after which the TEER was measured (=24 h time point). […]

Another series deals with IL-1β. Briefly: Caco-2/THP1-Blue co-culture: IL-1β secretion after LPS. The following applies: control tests, versus LPS+. It is filed as cell-based, human.
Excerpt: as §4
(§5) Briefly, the apical compartment (containing the Caco-2 cells) was filled with sterile-filtered (0.22 μm) colonic SHIME suspensions or with different concentrations of live bacteria. Cells were also treated apically with sodium butyrate (NaB) (Sigma-Aldrich) as positive control. The basolateral compartment (containing the THP1-Blue™ cells) was filled with Caco-2 complete medium. Cells were also exposed to Caco-2 complete medium in both chambers as control. Cells were treated for 24 h, after which the TEER was measured (=24 h time point). After subtracting the TEER of the empty insert, all 24 h values were normalized to its own 0 h value (to account for the differences in initial TEER of the different inserts) and are presented as percentage of initial value. Then, the basolateral supernatant was discarded, and cells were stimulated at the basolateral side with Caco-2 complete medium containing ultrapure LPS (Escherichia coli K12, InvivoGen). […]

Series [2] has as its system Caco-2/THP1-Blue™ co-cultures. Briefly: Caco-2/THP1-Blue co-culture: transepithelial electrical resistance (TEER). It counts as cell-based, human. The following applies: control tests, apical treatment 24 h, versus complete medium. The text has this: To mimic the interface between host and gut microbiome, several in vitro models have been developed in the past years which include the use of intestinal epithelial-like cells and immune cells of human origin. The model used herein was a co-culture model of intestinal epithelial-like cells (Caco-2 cells) and human monocytes/macrophages (THP1 cells). (See FIG. 14; see also Possemiers (2013) Satsu (2006).) Caco-2, when seeded on suitable supports, spontaneously differentiate into mature enterocyte-like cells, characterized by polarization, presence of villi, formation of domes, presence of tight junctions and vectorial transport and expression of apical brush-border enzymes (reviewed by Sambuy (2005)). THP1 monocytes, isolated from a human patient with acute leukemia, differentiate into macrophage-like cells upon phorbol 12-myristate 13-acetate (PMA) treatment. […] The ‘tightness’ of these junctions can be measured as transepithelial electrical resistance (TEER), with a high TEER corresponding to a tighter barrier. Upon loss of barrier function, the paracellular transport (in-between cells) of fluids increases, which can be measured as a reduction of the TEER. […] This is possibly due to cytokine-mediated disruption of tight junctions and can be measured as a decrease in TEER. […]

A further series relates to IL-6. Nature of the series: Caco-2/THP1-Blue co-culture: IL-6 secretion after LPS. It counts as cell-based, human. The following applies: control tests, versus LPS+.
Excerpt: as §4, §5

The test system of the next series is IL-10. Briefly: Caco-2/THP1-Blue co-culture: IL-10 secretion after LPS. It is filed as cell-based, human. The following applies: control tests, versus LPS+.
Excerpt: as §4, §5

In another series the test system is TNF-α. Briefly: Caco-2/THP1-Blue co-culture: TNF-α secretion after LPS. It is filed as cell-based, human. The note with it: control tests, versus LPS+.
Excerpt: as §4, §5

A further series has as its system IL-8. Briefly: Caco-2/THP1-Blue co-culture: IL-8 secretion after LPS. It counts as cell-based, human. The following applies: control tests, versus LPS+.
Excerpt: as §4, §5

The subject of a further series is CXCL10. Nature of the series: Caco-2/THP1-Blue co-culture: CXCL10 secretion after LPS. It is filed as cell-based, human. The following applies: control tests, versus LPS+.
Excerpt: as §4, §5

The next series relates to MCP-1. Briefly: Caco-2/THP1-Blue co-culture: MCP-1 secretion after LPS. The following applies: control tests, versus LPS+. It is filed as cell-based, human.
Excerpt: as §4, §5

Experimental for Clostridium XlVa: The effect of Sample Nos. 1-12 at a concentration of 4 mg/mL on a panel of over twenty-five gut microbiota was assessed after 24 h of fermentation using an in vitro fermentation screening platform (“i-screen”), as described by Fehlbaum (2018). Specifically, a standard fecal microbiota pool derived from 5-6 healthy adults (health based on exclusion criteria) was used that was pre-cultured overnight from a frozen stock. This was followed by dilution in microtiter plates in which the samples were added and subsequently anaerobically incubated for 24 h at 37° C. After incubation, culture samples were harvested and processed for further analysis. […] A number of sphingan samples and comparative samples—plant extracts (e.g., pectins, pectin oligosaccharides, and carrageenans) and biogums (e.g., xanthan and xanthan oligosaccharides)) were analyzed at a concentration of about 4 mg/mL, which corresponds to a dose of about 4 g/day.

`CC1(C)S[C@@H]2[C@H](NC(=O)[C@H](N)c3ccc(O)cc3)C(=O)N2[C@H]1C(=O)O` [CS20, Amoxicillin] displayed a Bifid. growth in the series with Bifidobacterium of 0.24. The molecule also registered a Blaut. growth in the series on Blautia of 0.23. This molecule also yielded a Faecal. growth in the series with Faecalibacterium of 0.37. Also, in the series on Parabacteroides, the Para. growth is listed as 12.10. In addition, in series [1], the “Lachn. U. growth” value is on record as 0.04. In the series on Clostridium XlVa, this molecule registered a ClX1Va growth of 0.03. The Copro. growth in the series with Coprococcus turned out to be 0.04. Also, the Phasc. growth with Phascolarctobacterium amounted to 0.08. This molecule registered a Butyr. growth in the series with Butyricicoccus of 0.00.

`C[C@]12CCC(=O)C=C1CC[C@@H]1[C@@H]2[C@@H](O)C[C@@]2(C)[C@H]1CC[C@]2(O)C(=O)CO` [HC, hydrocortisone]: in the series on NF-κB, the “LPS-induced NF-κB transcriptional activity” value is on record as “inhibiting”. Besides, in the series on IL-1β, the “LPS-induced IL-1β expression” value is reported as “did not reduce”.

In the case of `CCCC(=O)[O-].[Na+]` [NaB, sodium butyrate], the “TEER of the Caco-2 monolayer” value in series [2] was “maintain the TEER”. Further, in the series on NF-κB, the “LPS-induced NF-κB transcriptional activity” value was “increased”. For the same molecule, in the series with IL-6, the “LPS-induced IL-6 secretion” value is reported as “selectively increased”. In the series on IL-10, the “LPS-induced IL-10 secretion” value is reported as “selectively increased”. Moreover, the “LPS-induced IL-1β expression” value in the series on IL-1β was “did not reduce”. Also, the “LPS-induced TNF-α” value with TNF-α is reported as “selectively inhibited”. For the same molecule, the “LPS-induced IL-8” value with IL-8 is listed as “selectively inhibited”. In the series with CXCL10, the “LPS-induced CXCL10” value is reported as “selectively inhibited”. In addition, in the series with MCP-1, the “LPS-induced MCP-1” value is recorded as “selectively inhibited”.
